From patent publication US8183204B2, “Methods and compositions for increasing skin remodeling” (Summit Associates International Inc., priority 2000, dated 2012)
Where no end group is shown, it is not given here.

test system: surgical incisions on the backs of Swiss-Webster mice; assay: Scar formation after surgical incisions, synthetic peptide-metal complexes injected along the incision line; assay type: in vivo; conditions: 10 mice each; 1 mg/ml in 0.85% saline, 0.02 ml injected at four sites on each side of incision, immediately after surgery and 24 hours later; rated 0 to 4 (heavy scarring); untreated control 3.6
Procedure: This Example describes the use of a synthetic peptides complexed with cupric chloride or Tin(II) chloride to reduce post-surgical scarring.
Peptide-copper complexes were dissolved in 0.85% saline at a concentration of 1 milligram per milliliter.
Surgical incisions (1.25 cm) were made on the backs of anesthetized, 35 gram, Swiss-Webster mice. Immediately after surgery and 24 hours later, the 0.02 ml of the peptide complexes were injected at four sites on each side of the incision line. Control wounds were untreated.
For comparison, the amount of scar formation was rated from 0 (little or no scarring) to 4 (heavy scarring).

Row | Compound | Scar Formation score (5 days)
1 | His-Gly-Gly-Tin(II) | 0.4 ± 0.2
2 | Gly-Gly-His-Copper(II) | 0.3 ± 0.2
3 | Gly-His-Lys-Tin(II) | 0.4 ± 0.1
4 | Gly-Cys-Gly-Copper(II) | 1.4 ± 0.3
5 | Gly-His-Lys-Copper(II) | 0.2 ± 0.1
6 | Ala-Gly-His-Copper(II) | 0.3 ± 0.1
7 | Ala-Gly-His-Tin(II) | 0.3 ± 0.1
8 | Gly-His-Lys-His-Tin(II) (GHKH; also: tin(II) complex) | 0.4 ± 0.2
9 | Phe-Phe-Copper(II) | 0.5 ± 0.3
10 | Gly-Gly-Gly-Copper(II) | 0.5 ± 0.3
11 | Gly-His-Lys-His-Copper(II) (GHKH; also: copper(II) complex) | 0.4 ± 0.2
12 | His-Gly-Gly-Copper(II) | 0.5 ± 0.2
13 | Cysteine sulfinic acid-Copper(II) [reference compound] | 2.9 ± 0.5

same assay, conditions: mice, injection along incision line

Row | Compound | post-surgical scar formation compared with control wounds (in words)
14 | N[C@@H](CCS(=O)(=O)O)C(=O)O.[Cu+2] [Homocysteic acid-Copper(II), reference compound] | much less active
15 | N[C@@H](CS(=O)(=O)O)C(=O)O.[Cu+2] [Cysteic acid-Copper(II), reference compound] | much less active
16 | Cysteine sulfinic acid-Copper(II) [reference compound] | much less active
